Values belong to the molecule of their own block, whether it stands above or below them.
Tests used:
[1] = Size and charge of LNPs by DLS (Malvern NanoZS); assay type: physicochemical
Method: Thin layer chromatographies (TLC) are carried out on aluminium plates covered with silica gel 60 Fasa (Merck). […] The synthesized products are purified on chromatography columns on silica. The flash chromatography separations are carried out on silica gel 60 (230-400 mesh ASTM) (Merck). Particle size and zeta potential measurements: The mean hydrodynamic particle size and charge measurements were performed using Dynamic Light Scattering (DLS) and Laser Doppler Velocimetry (LDV), respectively, using Malvern Nano ZS instrument and DTS software (Malvern Instruments, UK) in a water of Grade 2. Various amounts of cationic poloxamers were diluted in 100 µl of water and mixed with an equal volume of the same water containing DNA. The measurements were carried out in automatic mode and the results are presented as mean +/- SEM, n= 3. Each mean represents the average value of 30 measurements.
(§1) The size and charge of the collected LNPs are determined using DLS (Malvern Instruments NanoZS) by dissolving 50 µL of the collected solution in 950 µL of MilliQ water. Then, formed LNPs are destabilized by adding 1% v/v of Triton X-100 and incubate at 30°C for 1h and vortexing. After disruption of the formulation, a 1/100 solution of SyBr™Gold in water is prepared, and 0.5µL of it added to 49.5µL of the resulting mixture that includes Triton X-100. The SyBr™Gold is also added the same way to 49.5µL of a solution that contains non-disrupted LNPs, and to 49.5µL of the mRNA mother solution. Fluorescence of each sample is then read after 30 min incubation at RT using a Victor (Perkin Elmer) fluorimeter (excitation: 495nm; emission: 537nm ;). The encapsulation efficiency (ee(%)) is easily obtained from these fluorescence measurements using the formula below: ee (%) = ((Fluo_LNP1v%triton−Fluo_LNP))/(Fluo_RNAstock solution) × 100 [formula]

[2] = test system: F-Luc mRNA expression; assay: In vivo transfection of F-Luc mRNA using LNPs, bioluminescence (IVIS imaging); details: nude mice, i.p.
Excerpt: Lipids I, VI and XIV have been formulated into LNPs following the molar composition depicted before (Table 1). 5-methoxyuridine-modified mRNA encoding for Firefly Luciferase (OZ Biosciences, Cat: MRNA16-1000) has been entrapped into the LNP. […] Table 3: Main physical properties of mRNA(F-Luc) LNPs based on tunable lipids I, VI, XIV, and cationic lipid DOTAP
Overall, all LNPs formulations display consistent physico-chemical properties, controlled and reproducible size, charge, polydispersity and encapsulation rate to be used in small animals. A dose equivalent to 10 µg of mRNA has been injected i.p. (intra-peritoneally) in nude mice using three different LNPs. Tunable lipids I and XIV and DOTAP-based LNPs have been selected. Bioluminescence has been monitored over time using IVIS imaging system. […] Indeed 3h post injection, luminescence could be observed in all animals at different proportions (Figure 50). Specifically, F-Luc mRNA expression was higher in mice that received LNPs based on tunable lipids, whereas expression was much lower when DOTAP is used.

[3] = Encapsulation efficiency / loaded nucleic acid by SyBr Gold fluorescence after Triton X-100 disruption; assay type: physicochemical
Method: as §1

[4] = test system: firefly luciferase; assay: Biodistribution study of Luciferase mRNA LNPs, RT-PCR of organs; assay type: in vivo; details: nude mice, i.p., 10µg RNA dose, RT-PCR 6 hours after injection
Method: Biodistribution study involving tunable lipids-based LNPs (lipids I, VI, and XIV) has also been conducted in nude mice that were injected i.p. with Luciferase mRNA formulated into 3 different LNPs formulations at 10µg RNA dose to evaluate the nucleic acid delivery into various organs. The liver, lung, kidney and spleen were collected and analysed through RT-PCR 6 hours after injection. As observed previously, tunable lipids-based LNPs are appropriately efficient to allow the observation and quantitation of Luciferase protein in quantity 6 hours after i.p. injection.

[5] = test system: ovalbumin (OVA) antigen; assay: In vivo immunization with OVA mRNA LNPs, ELISA and Elispot; details: C57BL6J mice, s.c. prime boost (D0-14), 10µg mRNA
Excerpt: In this context, the emergence of vaccine-based LNPs represents a clear opportunity to reach pathologies impossible to fight with more classical vaccine approach. The tunable lipid presented in this document could envisioned as potent pillar for future nucleic acid-based vaccine, due to their ground-breaking features in term of efficiency and safe character. Thus, LNPs based on tunable lipids I and XIV have been formulated to encapsulate unmodified mRNA coding for the ovalbumin (OVA) antigen (OZ Biosciences, Cat: MRNA42-1000) and their physico-chemical properties determined (Table 4). Table 4: Main physical properties of mRNA(OVA) LNPs based on tunable lipids I and XIV.
C57BL6J mice received a prime boost (D0-14) immunizations of OVA antigen delivered by mRNA-based LNPs or by recombinant protein (alone or adjuvanted with aluminium-based adjuvant). To characterize the immuno-phenotyping of the mice, the sera and splenocytes were collected at different time (D0, D14, D21, D28) and analysed by ELISA and Elispot. The mice were immunized by s.c (sub-cutaneous) route with 100µL per injection at 10µg OVA subunit and 10µg mRNA doses. Results are depicted in figures 51 and 52, mRNA-OVA LNP formulations are efficient at priming a strong humoral response upon sub-cutaneous prime boost injection (D0-14). Indeed, a strong antibody response was measured after prime boost immunization. […]

[6] = mRNA(F-Luc) LNPs, total lipid 5 mM, N/P 6
[7] = mRNA(GFP) LNPs, total lipid 3.75 mM, N/P 6
[8] = DNA pVectOZ (eGFP) LNPs, total lipid 3.91 mM, N/P 6.6
[9] = DNA pVectOZ(Ppt) LNPs, total lipid 4 mM, N/P 10
[10] = mRNA(OVA) LNPs, total lipid 5 mM, N/P 6
[11] = NTsiRNA-Cy5 LNPs, DiO Label N, total lipid 4.74 mM, N/P 6
[12] = NTsiRNA-Cy5 LNPs, DiO Label Y, total lipid 4.74 mM, N/P 6
[13] = DNA pVectOZ (F-Luc) LNPs, total lipid 4.6 mM, N/P 12

PDI [1, 8]: 0.044 | Size [1, 8]: 158.9 nm | Zeta [1, 8]: +4.61 mV | PDI [1, 9]: 0.079 | Size [1, 9]: 173 nm | Zeta [1, 9]: +14.3 mV | PDI [1, 6]: 0.09 | Size [1, 6]: 88 nm | Zeta [1, 6]: -7.3 mV | Zeta [1, 7]: -9.3 mV | PDI [1, 10]: 0.153 | Size [1, 10]: 111.4 nm | Zeta [1, 10]: -9.01 mV | Encapsulation Efficiency [3, 8]: 83% | Loaded DNA [3, 8]: 0.125 ng/µL | Encapsulation Efficiency [3, 9]: 82% | Loaded DNA [3, 9]: 0.125 ng/µL | Encapsulation Efficiency [3, 6]: 97.5% | Loaded RNA [3, 6]: 195 ng/µL | Encapsulation Efficiency [3, 7]: 94.6% | Loaded RNA [3, 7]: 94.6 ng/µL | Encapsulation Efficiency [3, 10]: 98.1% | Loaded RNA [3, 10]: 98.1 ng/µL
Structure (SMILES): CCCCCCCC/C=C\CCCCCCCCNC(=O)CCC(NC(=O)CN(C)C)C(=O)NCCCCCCCC/C=C\CCCCCCCC (centres unmarked) [I]
Luciferase gene expression in lung [4]: high protein expression rate | Luciferase gene expression in spleen [4]: high protein expression rate | immune response (initial response of IgG2c) [5]: efficient in generating an immune response | time of maximum bioluminescence signal post injection ([2]; 10 µg mRNA): 6 h | overall luminescence signal (kinetics) ([2]; 10 µg mRNA, over 25h): highest overall luminescence signal

Encapsulation Efficiency [3, 7]: 89% | Loaded RNA [3, 7]: 89 ng/µL
Structure (SMILES): CCCCCCC/C=C\CCCCCCCCNC(=O)CCC(NC(=O)OCCN(CC)CC)C(=O)NCCCCCCCC/C=C\CCCCCCCC (centres unmarked) [V]

PDI [1, 13]: 0.079 | Size [1, 13]: 103 nm | Zeta [1, 13]: +16.5 mV | PDI [1, 11]: 0.091 | Size [1, 11]: 116 nm | Zeta [1, 11]: +18.2 mV | PDI [1, 12]: 0.073 | Size [1, 12]: 99 nm | Zeta [1, 12]: +19.9 mV | polydispersity index ([1]; NTsiRNA-Cy5 LNPs, with or without DiO): below 0.1 | Encapsulation Efficiency [3, 13]: 92% | Loaded DNA [3, 13]: 94 ng/µL | Encapsulation Efficiency [3, 11]: >90% | Loaded siRNA [3, 11]: 0.125 ng/µL | Encapsulation Efficiency [3, 12]: >90% | Loaded siRNA [3, 12]: 0.125 ng/µL
Structure (SMILES): CCCCC/C=C\C/C=C\CCCCCCCCOC(=O)CCC(NC(=O)CCCN(C)C)C(=O)OCCCCCCCC/C=C\C/C=C\CCCCC (centres unmarked) [XI]

Encapsulation Efficiency [3, 7]: 78.3% | Loaded RNA [3, 7]: 78.3 ng/µL
Structure (SMILES): CCCCCCCC/C=C\CCCCCCCC(=O)NCCCC(NC(=O)CCCCCCC/C=C\CCCCCCCC)C(=O)NCCCn1ccnc1 (centres unmarked) [XV]

PDI [1, 7]: 0.109 | Size [1, 7]: 141 nm | Zeta [1, 7]: +11.6 mV | Encapsulation Efficiency [3, 7]: 83.6% | Loaded RNA [3, 7]: 83.6 ng/µL
Structure (SMILES): CCCCC/C=C\C/C=C\CCCCCCCCOC(=O)CCC(NC(=O)CN(C)C)C(=O)OCCCCCCCC/C=C\C/C=C\CCCCC (centres unmarked) [X]

The next lines start with the molecule.

Structure (SMILES): CCCCCCCC/C=C\CCCCCCCC(=O)OCC(C[N+](C)(C)C)OC(=O)CCCCCCC/C=C\CCCCCCCC (centres unmarked) [DOTAP, I ,2-dioleoy-3-tri-methylarnmonium propane, reference compound]
PDI [1, 6]: 0.23 | Size [1, 6]: 96 nm | Zeta [1, 6]: +17 mV | F-Luc mRNA expression (bioluminescence) ([2]; 10 µg of mRNA, 3h post injection): much lower | Encapsulation Efficiency [3, 6]: 91.5% | Loaded RNA [3, 6]: 183 ng/µL

Structure (SMILES): CCCCCCC/C=C\CCCCCCCCNC(=O)CCC(NC(=O)CCCN(C)C)C(=O)NCCCCCCCC/C=C\CCCCCCCC (centres unmarked) [II]
PDI [1, 7]: 0.2 | Size [1, 7]: 113 nm | Zeta [1, 7]: 5.57 mV | Encapsulation Efficiency [3, 7]: 98.8% | Loaded RNA [3, 7]: 98.8 ng/µL

Structure (SMILES): CCCCCCCC/C=C\CCCCCCCCNC(=O)CCC(NC(=O)CCC(=O)NCCSSCCNC(=O)CN(C)C)C(=O)NCCCCCCCC/C=C\CCCCCCCC (centres unmarked) [VI]
Luciferase gene expression in liver [4]: rate comparable to those observed in the lungs | Luciferase gene expression in spleen [4]: high delivery | PDI [1, 6]: 0.13 | Size [1, 6]: 115 nm | Zeta [1, 6]: -2.25 mV | PDI [1, 7]: 0.344 | Size [1, 7]: 117 nm | Zeta [1, 7]: +0.3 mV | Encapsulation Efficiency [3, 6]: 94% | Loaded RNA [3, 6]: 188 ng/µL | Encapsulation Efficiency [3, 7]: 84% | Loaded RNA [3, 7]: 84 ng/µL

Structure (SMILES): CCCCC/C=C\C/C=C\CCCCCCCCNC(=O)CCC(NC(=O)CCCN(C)C)C(=O)NCCCCCCCC/C=C\C/C=C\CCCCC (centres unmarked) [XIV]
Luciferase gene expression in kidney [4]: most efficient between the three tested formulation | Luciferase gene expression in lung [4]: highest rate of gene expression | PDI [1, 11]: 0.222 | Size [1, 11]: 114 nm | Zeta [1, 11]: +27 mV | PDI [1, 12]: 0.198 | Size [1, 12]: 106 nm | Zeta [1, 12]: -2.46 mV | PDI [1, 6]: 0.13 | Size [1, 6]: 99 nm | Zeta [1, 6]: +4.85 mV | PDI [1, 7]: 0.186 | Size [1, 7]: 115 nm | PDI [1, 10]: 0.149 | Size [1, 10]: 131.7 nm | Zeta [1, 10]: -7.9 mV | immune response (initial response of IgG2c) [5]: efficient in generating an immune response | time of maximum bioluminescence signal post injection ([2]; 10 µg mRNA): 3 h | Encapsulation Efficiency [3, 11]: >90% | Loaded siRNA [3, 11]: 0.125 ng/µL | Encapsulation Efficiency [3, 12]: >90% | Loaded siRNA [3, 12]: 0.125 ng/µL | Encapsulation Efficiency [3, 6]: 87.5% | Loaded RNA [3, 6]: 175 ng/µL | Encapsulation Efficiency [3, 7]: 91% | Loaded RNA [3, 7]: 91 ng/µL | Encapsulation Efficiency [3, 10]: 94% | Loaded RNA [3, 10]: 94 ng/µL
